Laboratory results reported in ChEMBL document CHEMBL1201862, “PubChem BioAssay data set” (2004).
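How tested: cells in 96-well plates exposed to compound for 48 hours at five concentrations. Abbreviation: GI50, concentration required for 50% inhibition of growth.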 Activity calls are given as the source filed them. No stated cut-off is given here; in the data, active = GI50 up to about 1.1 µM and inactive = higher. Where a SMILES comes first, the peptide text is derived from it. Bridges are numbered along the chain shown (N, C = ends). [ ]: non-standard residue; d: D form. The star is where a group is joined. ξ: configuration not given here. ξNMePhe(4-NMe2) = CNC(Cc1ccc(N(C)C)cc1)C(=O)O; Picolinoyl(3-OH) = O=C(c1ncccc1O)*; ξPip(4-oxo) = O=C1CCNC(C(=O)O)C1; Phg = N[CH](C(=O)O)c1ccccc1; Abu = CC[CH](N)C(=O)O

Key:
Assay in all cases: inhibition of tumour cell growth, NCI panel, 48 h
[1] = system: 786-0
[2] = system: ACHN
[3] = system: BT-549
[4] = system: DU-145
[5] = system: HL-60
[6] = system: HT-29
[7] = system: Hs-578T
[8] = system: KM12
[9] = system: MDA-MB-231
[10] = system: NCI-H23
[11] = system: SF-539
[12] = system: SK-MEL-28
[13] = system: SK-OV-3
[14] = system: SN12C
[15] = system: SNB-75
[16] = system: SW-620
[17] = system: TK-10
[18] = system: UACC-257
[19] = system: UACC-62

For `CC(C)(C)c1ccc(NS(=O)(=O)c2ccc(N)cc2)cc1`, the GI50 [1] was 23 µM (inactive), the GI50 [2] was 29.4 µM (inactive) and the GI50 [3] was 23.4 µM (inactive). The GI50 [4] was 30.5 µM (inactive), the GI50 [5] was 18.1 µM (inactive) and the GI50 [6] was 19 µM (inactive). The GI50 [7] was 27.4 µM (inactive), the GI50 [8] was 36.6 µM (inactive) and the GI50 [9] was 25.8 µM (inactive). For the same compound, the GI50 [10] was 26 µM (inactive), the GI50 [11] was 25.8 µM (inactive) and the GI50 [12] was 27.2 µM (inactive). The GI50 [13] was 3.29 µM (inactive), the GI50 [14] was 22.3 µM (inactive) and the GI50 [15] was 30.8 µM (inactive). The GI50 [16] was 26.9 µM (inactive), the GI50 [17] was 59 µM (inactive) and the GI50 [18] was 38.4 µM (inactive). For the same compound, the GI50 [19] was 15.7 µM (inactive).

In the case of `COc1ccc(C[C@H]2NC[C@H](OC(C)=O)[C@H]2OC(C)=O)cc1`, the GI50 [1] is reported as 0.0776 µM (active), the GI50 [2] is reported as 0.106 µM (active) and the GI50 [3] is reported as 0.171 µM (active). The GI50 [4] was 0.0726 µM (active), the GI50 [5] was 0.1 µM (active) and the GI50 [6] was 0.183 µM (active). The GI50 [7] was 0.135 µM (active), the GI50 [8] was 0.192 µM (active) and the GI50 [9] was 0.308 µM (active). The GI50 [10] was 0.179 µM (active), the GI50 [11] was 0.441 µM (active) and the GI50 [12] was 0.143 µM (active). The GI50 [13] was 0.138 µM (active), the GI50 [14] was 0.124 µM (active) and the GI50 [15] was 0.0721 µM (active). The GI50 [16] was 0.186 µM (active), the GI50 [17] was 0.31 µM (active) and the GI50 [18] was 0.21 µM (active). The GI50 [19] was 0.288 µM (active).

For `Nc1ccc2c(=S)c3ccccc3[nH]c2c1`, the GI50 [1] was 38.5 µM (inactive), the GI50 [2] was 38.1 µM (inactive) and the GI50 [3] was 48.4 µM (inactive). For the same compound, the GI50 [4] was > 72.1 µM (inactive), the GI50 [5] was 16.2 µM (inactive) and the GI50 [6] was 19.3 µM (inactive). For the same compound, the GI50 [7] was 55.6 µM (inactive), the GI50 [8] was 44.4 µM (inactive) and the GI50 [9] was 28.2 µM (inactive). For the same compound, the GI50 [10] was 22.9 µM (inactive), the GI50 [11] was 33.2 µM (inactive) and the GI50 [12] was 43.1 µM (inactive). For the same compound, the GI50 [13] was 22.2 µM (inactive), the GI50 [14] was > 77.6 µM (inactive) and the GI50 [15] was 18.7 µM (inactive). The GI50 [16] was 32.5 µM (inactive), the GI50 [17] was > 53.6 µM (inactive) and the GI50 [18] was 44.5 µM (inactive). For the same compound, the GI50 [19] was 31.7 µM (inactive).

With `CCOC(=O)c1ccc(Nc2nc3cc(C(F)(F)F)ccc3nc2C(=O)OCC)cc1` the GI50 [1] was 25.4 µM (inactive), the GI50 [2] was 42 µM (inactive) and the GI50 [3] was 72.6 µM (inactive). For the same compound, the GI50 [4] was > 100 µM (inactive), the GI50 [5] was > 100 µM (inactive) and the GI50 [6] was 84.1 µM (inactive). For the same compound, the GI50 [7] was > 100 µM (inactive), the GI50 [8] was > 100 µM (inactive) and the GI50 [9] was 74.5 µM (inactive). For the same compound, the GI50 [10] was 99.1 µM (inactive), the GI50 [11] was 50.9 µM (inactive) and the GI50 [12] was > 100 µM (inactive). The GI50 [13] was 44.5 µM (inactive), the GI50 [14] was > 100 µM (inactive) and the GI50 [15] was 40.2 µM (inactive). For the same compound, the GI50 [16] was > 100 µM (inactive), the GI50 [17] was 26.4 µM (inactive) and the GI50 [18] was > 100 µM (inactive). The GI50 [19] was 66.5 µM (inactive).

`CCOC(=O)[C@@H]1ON2OC(OC3CCCC3(c3ccccc3)c3ccccc3)C(OC(C)=O)[C@H]3OC(=O)[C@@H]1C32` (stereo not given in full) was tested, and the GI50 [1] was 92.3 µM (inactive), the GI50 [2] was 29.9 µM (inactive) and the GI50 [3] was > 100 µM (inactive). The GI50 [4] was > 100 µM (inactive), the GI50 [5] was 31.3 µM (inactive) and the GI50 [6] was 62.1 µM (inactive). The GI50 [7] was > 100 µM (inactive), the GI50 [8] was > 100 µM (inactive) and the GI50 [9] was > 100 µM (inactive). The GI50 [10] was > 100 µM (inactive), the GI50 [11] was 56.6 µM (inactive) and the GI50 [12] was > 100 µM (inactive). For the same compound, the GI50 [13] was > 100 µM (inactive), the GI50 [14] was > 100 µM (inactive) and the GI50 [15] was > 100 µM (inactive). The GI50 [16] was > 100 µM (inactive), the GI50 [17] was > 100 µM (inactive) and the GI50 [18] was 52.5 µM (inactive). For the same compound, the GI50 [19] was > 100 µM (inactive).

With `OCC(Cn1cncn1)(c1ccc(F)cc1F)n1cncn1` (stereo not given) the GI50 [1] was 66.1 µM (inactive), the GI50 [2] was > 100 µM (inactive) and the GI50 [3] was > 100 µM (inactive). For the same compound, the GI50 [4] was > 100 µM (inactive), the GI50 [5] was > 100 µM (inactive) and the GI50 [6] was > 100 µM (inactive). For the same compound, the GI50 [7] was > 100 µM (inactive), the GI50 [8] was > 100 µM (inactive) and the GI50 [9] was > 100 µM (inactive). For the same compound, the GI50 [10] was > 100 µM (inactive), the GI50 [11] was > 100 µM (inactive) and the GI50 [12] was > 100 µM (inactive). The GI50 [13] was > 100 µM (inactive), the GI50 [14] was > 100 µM (inactive) and the GI50 [15] was > 100 µM (inactive). The GI50 [16] was > 100 µM (inactive), the GI50 [17] was > 100 µM (inactive) and the GI50 [18] was > 100 µM (inactive). The GI50 [19] was > 100 µM (inactive).

For `COC(=O)C1(Cc2ccc3c(c2)CCC3)Cc2ccc3c(c2C1=O)CCC3` (stereo not given), the GI50 [1] was 7.33 µM (inactive), the GI50 [2] was 18.6 µM (inactive) and the GI50 [3] was 5.68 µM (inactive). For the same compound, the GI50 [4] was 33.6 µM (inactive), the GI50 [5] was 2.86 µM (inactive) and the GI50 [6] was 3.29 µM (inactive). The GI50 [7] was 3.26 µM (inactive), the GI50 [8] was 4.12 µM (inactive) and the GI50 [9] was 5.78 µM (inactive). For the same compound, the GI50 [10] was 6.62 µM (inactive), the GI50 [11] was 5.68 µM (inactive) and the GI50 [12] was 8.22 µM (inactive). For the same compound, the GI50 [13] was 20.4 µM (inactive), the GI50 [14] was 12.2 µM (inactive) and the GI50 [15] was 5.42 µM (inactive). For the same compound, the GI50 [16] was 4.11 µM (inactive), the GI50 [17] was 11.8 µM (inactive) and the GI50 [18] was 8.65 µM (inactive). For the same compound, the GI50 [19] was 3.84 µM (inactive).

For `COC(=O)c1ccccc1Nc1ccccc1C(=O)OC`, the GI50 [1] was 53.5 µM (inactive), the GI50 [2] was > 100 µM (inactive) and the GI50 [3] was > 100 µM (inactive). For the same compound, the GI50 [4] was > 100 µM (inactive), the GI50 [5] was > 100 µM (inactive) and the GI50 [6] was 91.2 µM (inactive). The GI50 [7] was 20.8 µM (inactive), the GI50 [8] was > 100 µM (inactive) and the GI50 [9] was 65.2 µM (inactive). For the same compound, the GI50 [10] was > 100 µM (inactive), the GI50 [11] was 83 µM (inactive) and the GI50 [12] was > 100 µM (inactive). The GI50 [13] was > 100 µM (inactive), the GI50 [14] was > 100 µM (inactive) and the GI50 [15] was 39.3 µM (inactive). For the same compound, the GI50 [16] was > 100 µM (inactive), the GI50 [17] was 41.2 µM (inactive) and the GI50 [18] was > 100 µM (inactive). For the same compound, the GI50 [19] was > 100 µM (inactive).

For `C[n+]1c2ccccc2n2c3ccccc3c(NCCCn3ccnc3)c(C#N)c21`, the GI50 [1] was 2.04 µM (inactive), the GI50 [2] was 3.48 µM (inactive) and the GI50 [3] was 17.6 µM (inactive). The GI50 [4] was 2.77 µM (inactive), the GI50 [5] was 3.94 µM (inactive) and the GI50 [6] was 3.31 µM (inactive). For the same compound, the GI50 [7] was 1.64 µM (inactive), the GI50 [8] was 2.01 µM (inactive) and the GI50 [9] was 2.65 µM (inactive). The GI50 [10] was 2.27 µM (inactive), the GI50 [11] was 3.94 µM (inactive) and the GI50 [12] was 3.48 µM (inactive). The GI50 [13] was 3.54 µM (inactive), the GI50 [14] was 1.26 µM (inactive) and the GI50 [15] was 1.66 µM (inactive). The GI50 [16] was 1.49 µM (inactive), the GI50 [17] was 7.11 µM (inactive) and the GI50 [18] was 3.85 µM (inactive). For the same compound, the GI50 [19] was 2.74 µM (inactive).

In the case of `CC1=C/C(O)CC(=O)Cc2nc(co2)C(=O)N2CCC=C2C(=O)OC(C(C)C)C(C)/C=C/C(=O)NC\C=C\1.CCC1NC(=O)C(NC(=O)c2ncccc2O)C(C)OC(=O)C(c2ccccc2)NC(=O)C2CC(=O)CCN2C(=O)C(Cc2ccc(N(C)C)cc2)N(C)C(=O)C2CCCN2C1=O` (stereo not given) ({Picolinoyl(3-OH)}-T[Abu]P[ξNMePhe(4-NMe2)][ξPip(4-oxo)][Phg]; ester 1-C; configuration not given here), the GI50 [1] is reported as 15.5 µM (inactive), the GI50 [2] is reported as 7.96 µM (inactive) and the GI50 [3] is reported as 16.9 µM (inactive). For the same compound, the GI50 [4] was 7.33 µM (inactive), the GI50 [5] was 3.71 µM (inactive) and the GI50 [6] was 6.41 µM (inactive). For the same compound, the GI50 [7] was 18.2 µM (inactive), the GI50 [8] was 10.4 µM (inactive) and the GI50 [9] was 7.55 µM (inactive). The GI50 [10] was 7.05 µM (inactive), the GI50 [11] was 17.5 µM (inactive) and the GI50 [12] was 13.7 µM (inactive). For the same compound, the GI50 [13] was 25.5 µM (inactive), the GI50 [14] was 9.35 µM (inactive) and the GI50 [15] was 24.7 µM (inactive). For the same compound, the GI50 [16] was 7.5 µM (inactive), the GI50 [17] was 27.2 µM (inactive) and the GI50 [18] was 6.08 µM (inactive). For the same compound, the GI50 [19] was 13 µM (inactive).
